Measured values: patent US20240317777A1, “NOVEL MACROCYCLIC AMINOPYRAZOLE COMPOUNDS AS CDK2 INHIBITORS” (Accutar Biotechnology Inc., priority 2023, published 2024)
Read-outs that look alike come from different tables or passages of the source.

Tests used:
CDK1-CYCLIN B = CDK1-CYCLIN B (Homo sapiens, UniProt P06493); assay: CDK protein kinase inhibition by ADP-Glo assay, CDK1-CYCLIN B; assay type: biochemical; details: for IC50: ADP-Glo, 1000 μM ATP, read-out: CDK1-CYCLINB, IC50; for CDK2 Fold selectivity, CDK1: CDK2 versus CDK1
Chain of CDK1-CYCLIN B (P06493 whole entry): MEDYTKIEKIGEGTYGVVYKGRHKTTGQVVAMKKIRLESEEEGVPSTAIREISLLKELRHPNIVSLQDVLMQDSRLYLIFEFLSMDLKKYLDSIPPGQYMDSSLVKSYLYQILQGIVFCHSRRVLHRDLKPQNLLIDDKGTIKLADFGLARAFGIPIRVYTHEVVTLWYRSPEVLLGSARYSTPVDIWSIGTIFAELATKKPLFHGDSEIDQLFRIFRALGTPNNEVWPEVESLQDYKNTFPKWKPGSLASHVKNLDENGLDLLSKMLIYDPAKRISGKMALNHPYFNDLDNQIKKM
Chain of CDK1-CYCLIN B (P14635 whole entry partner): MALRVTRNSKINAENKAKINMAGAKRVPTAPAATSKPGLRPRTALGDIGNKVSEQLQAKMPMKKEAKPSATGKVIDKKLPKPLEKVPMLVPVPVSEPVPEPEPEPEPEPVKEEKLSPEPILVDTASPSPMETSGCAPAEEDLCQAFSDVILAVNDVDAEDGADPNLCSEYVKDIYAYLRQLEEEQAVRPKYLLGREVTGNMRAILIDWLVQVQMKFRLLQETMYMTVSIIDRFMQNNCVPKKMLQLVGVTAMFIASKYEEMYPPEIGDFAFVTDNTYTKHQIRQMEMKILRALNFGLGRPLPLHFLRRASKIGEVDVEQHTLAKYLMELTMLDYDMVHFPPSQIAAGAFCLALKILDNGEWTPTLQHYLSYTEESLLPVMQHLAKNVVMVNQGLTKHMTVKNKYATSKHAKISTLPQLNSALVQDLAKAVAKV
Procedure, shortened: (§1)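 Kinase/cyclin + peptide substrate + cpd + ATP (1000 μM)/MgCl2 (5 mM), HEPES pH 7.5, 22° C; quench, ADP-Glo reagent 45 min RT, detection reagent 10 min, luminescence.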

[1] = system: CCNE1-amplified OVCAR3 cells; assay: Cell growth inhibition of CCNE1-amplified OVCAR3 cells (CellTiter-Glo); assay type: cell-based; details: Homo sapiens, OVCAR-3, 144 h, 6 days
Procedure, shortened: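 Growth read-out was CellTiter-Glo luminescence, taken after 10 min at room temperature at the end of a 6-day compound exposure at 37 °C. Compounds were diluted from DMSO stocks across various concentrations.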

[2] = system: Phospho-Rb (Ser807/811) in OVCAR3 cells; assay: Phospho-Rb expression inhibition in OVCAR3 cells quantified by In Cell Western; assay type: cell-based; details: Homo sapiens, OVCAR-3, 24 hours, read-out: OVCAR-3 pRb IC50
Procedure, shortened: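 In-cell western: after 24 h compound exposure at 37° C, fixed OVCAR3 cells co-stained for pRb Ser807/811 (800 nm channel) and total Rb (680 nm channel), imaged by LI-COR Odyssey.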

CDK6-CYCLIN D3 = CDK6-CYCLIN D3 (Homo sapiens, UniProt Q00534); assay: CDK protein kinase inhibition by ADP-Glo assay, CDK6-CYCLIN D3; assay type: biochemical; details: for IC50: ADP-Glo, 1000 μM ATP, read-out: CDK6-CYCLIND3, IC50; for CDK2 Fold selectivity, CDK6: CDK2 versus CDK6
Chain of CDK6-CYCLIN D3 (Q00534 whole entry): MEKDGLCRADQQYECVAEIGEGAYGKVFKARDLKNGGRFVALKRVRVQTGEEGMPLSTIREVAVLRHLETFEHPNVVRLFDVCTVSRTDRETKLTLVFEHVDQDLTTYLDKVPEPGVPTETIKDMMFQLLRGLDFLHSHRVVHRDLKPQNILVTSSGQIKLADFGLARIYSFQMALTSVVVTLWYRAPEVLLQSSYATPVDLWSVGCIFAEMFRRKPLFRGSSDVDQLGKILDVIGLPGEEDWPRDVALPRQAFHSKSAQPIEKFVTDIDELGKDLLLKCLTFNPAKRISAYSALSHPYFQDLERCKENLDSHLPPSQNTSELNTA
Chain of CDK6-CYCLIN D3 (P30281 whole entry partner): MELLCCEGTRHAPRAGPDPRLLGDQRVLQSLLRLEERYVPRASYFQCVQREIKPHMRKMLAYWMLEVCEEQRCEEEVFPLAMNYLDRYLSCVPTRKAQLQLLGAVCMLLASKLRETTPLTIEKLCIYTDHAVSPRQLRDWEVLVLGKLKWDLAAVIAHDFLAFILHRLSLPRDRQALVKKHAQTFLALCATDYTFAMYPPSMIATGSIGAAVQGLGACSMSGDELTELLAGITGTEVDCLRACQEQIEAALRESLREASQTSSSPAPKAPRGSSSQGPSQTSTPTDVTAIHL
Procedure, shortened: as §1

CCNE1-normal SKOV3 cells = assay: Cell growth inhibition of CCNE1-normal SKOV3 cells (CellTiter-Glo); assay type: cell-based; details: Homo sapiens, SK-OV-3, 144 h, 6 days
Procedure, shortened: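 Growth was measured by CellTiter-Glo luminescence after 6 days' compound exposure at 37 °C. Cells were plated one day before dosing at 1000 per well in medium with 10% FBS, and compounds were diluted from DMSO stocks.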

CDK2-CYCLIN E1 = CDK2-CYCLIN E1 (Homo sapiens, UniProt P24941); assay: CDK protein kinase inhibition by ADP-Glo assay, CDK2-CYCLIN E1; assay type: biochemical; details: ADP-Glo, 1000 μM ATP, read-out: CDK2-CYCLINE, IC50
Procedure, shortened: as §1

CDK9-CYCLIN T1 = CDK9-CYCLIN T1 (Homo sapiens, UniProt P50750); assay: CDK protein kinase inhibition by ADP-Glo assay, CDK9-CYCLIN T1; assay type: biochemical; details: for IC50: ADP-Glo, 1000 μM ATP, read-out: CDK9-CYCLINT1, IC50; for CDK2 Fold selectivity, CDK9: CDK2 versus CDK9
Chain of CDK9-CYCLIN T1 (P50750 whole entry): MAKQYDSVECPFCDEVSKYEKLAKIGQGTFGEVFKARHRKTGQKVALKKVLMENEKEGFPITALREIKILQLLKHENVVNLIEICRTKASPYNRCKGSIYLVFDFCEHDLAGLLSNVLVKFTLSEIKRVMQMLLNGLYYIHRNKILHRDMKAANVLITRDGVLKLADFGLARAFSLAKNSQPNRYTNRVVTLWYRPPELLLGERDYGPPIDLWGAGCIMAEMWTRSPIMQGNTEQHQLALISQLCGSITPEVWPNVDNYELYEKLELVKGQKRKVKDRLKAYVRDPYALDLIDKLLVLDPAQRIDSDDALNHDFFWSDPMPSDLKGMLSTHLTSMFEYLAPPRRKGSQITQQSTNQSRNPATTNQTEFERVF
Chain of CDK9-CYCLIN T1 (O60563 whole entry partner): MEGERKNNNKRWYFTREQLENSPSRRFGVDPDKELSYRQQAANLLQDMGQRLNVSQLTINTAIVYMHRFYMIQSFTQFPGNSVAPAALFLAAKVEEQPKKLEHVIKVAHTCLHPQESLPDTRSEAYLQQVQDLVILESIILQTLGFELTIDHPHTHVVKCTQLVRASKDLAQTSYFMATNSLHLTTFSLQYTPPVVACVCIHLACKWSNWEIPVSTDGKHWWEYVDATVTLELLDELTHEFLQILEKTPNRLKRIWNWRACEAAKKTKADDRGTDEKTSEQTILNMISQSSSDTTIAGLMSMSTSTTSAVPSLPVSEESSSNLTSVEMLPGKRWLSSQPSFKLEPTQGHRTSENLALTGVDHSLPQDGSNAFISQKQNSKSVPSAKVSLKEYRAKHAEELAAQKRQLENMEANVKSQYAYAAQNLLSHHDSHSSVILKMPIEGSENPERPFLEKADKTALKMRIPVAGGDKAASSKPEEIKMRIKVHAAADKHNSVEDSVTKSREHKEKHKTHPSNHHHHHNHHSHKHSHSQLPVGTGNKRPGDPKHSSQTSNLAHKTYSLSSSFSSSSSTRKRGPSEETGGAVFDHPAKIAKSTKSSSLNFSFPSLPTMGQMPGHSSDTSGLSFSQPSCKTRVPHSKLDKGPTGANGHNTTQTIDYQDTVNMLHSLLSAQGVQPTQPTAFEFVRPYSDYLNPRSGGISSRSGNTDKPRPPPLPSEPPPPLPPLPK
Procedure, shortened: as §1

CDK4-CYCLIN D1 = CDK4-CYCLIN D1 (Homo sapiens, UniProt P11802); assay: CDK protein kinase inhibition by ADP-Glo assay, CDK4-CYCLIN D1; assay type: biochemical; details: for IC50: ADP-Glo, 1000 μM ATP, read-out: CDK4-CYCLIND1, IC50; for CDK2 Fold selectivity, CDK4: CDK2 versus CDK4
Chain of CDK4-CYCLIN D1 (P11802 whole entry): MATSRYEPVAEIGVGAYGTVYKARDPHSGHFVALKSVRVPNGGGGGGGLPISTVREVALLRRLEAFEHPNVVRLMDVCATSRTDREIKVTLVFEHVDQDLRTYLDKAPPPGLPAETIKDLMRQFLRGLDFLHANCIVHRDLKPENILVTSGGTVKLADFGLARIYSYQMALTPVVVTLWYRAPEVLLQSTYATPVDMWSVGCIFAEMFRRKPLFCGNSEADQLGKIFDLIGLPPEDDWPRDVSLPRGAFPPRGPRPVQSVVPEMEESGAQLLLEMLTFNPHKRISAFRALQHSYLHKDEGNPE
Chain of CDK4-CYCLIN D1 (P24385 whole entry partner): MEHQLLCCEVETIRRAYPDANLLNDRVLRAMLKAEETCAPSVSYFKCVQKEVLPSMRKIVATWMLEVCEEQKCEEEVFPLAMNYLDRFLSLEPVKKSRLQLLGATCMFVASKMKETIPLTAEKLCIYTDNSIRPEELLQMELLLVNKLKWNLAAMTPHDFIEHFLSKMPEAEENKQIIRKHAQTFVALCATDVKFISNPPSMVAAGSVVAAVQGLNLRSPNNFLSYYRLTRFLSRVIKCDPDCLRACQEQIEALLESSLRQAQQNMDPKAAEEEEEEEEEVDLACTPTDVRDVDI
Procedure, shortened: as §1

## O=C1NC2(CCCCc3cc(ccn3)Nc3cc(n[nH]3)[C@H]3CC[C@H](C3)O1)CC2 [Compound 116, (1′S,3′R,Z)-spiro[cyclopropane-1,9′-12-oxa-3,10-diaza-4(4,2)-pyridina-2(3,5)-pyrazola-1(1,3)-cyclopentanacyclododecaphan]-11′-one]
CDK1-CYCLIN B; Table 17
  IC50: 50 to 100 nM
CDK1-CYCLIN B; Table 18
  CDK2 Fold selectivity, CDK1: D (D, >20 and ≤50)
[1]
  IC50: 10 to 50 nM
[2]
  IC50: 10 to 50 nM
CDK6-CYCLIN D3; Table 17
  IC50: 10 to 50 nM
CDK6-CYCLIN D3; Table 18
  CDK2 Fold selectivity, CDK6: E (E, <20)
CCNE1-normal SKOV3 cells
  IC50: 250 to 1250 nM
CDK2-CYCLIN E1; Table 17
  IC50: ≤ 10 nM
CDK9-CYCLIN T1; Table 17
  IC50: 50 to 100 nM
CDK9-CYCLIN T1; Table 18
  CDK2 Fold selectivity, CDK9: D (D, >20 and ≤50)
CDK4-CYCLIN D1; Table 17
  IC50: 10 to 50 nM
CDK4-CYCLIN D1; Table 18
  CDK2 Fold selectivity, CDK4: E (E, <20)

## O=C1NC23CC(CCOc4cncc(c4)Nc4cc(n[nH]4)[C@H]4CC[C@H](C4)O1)(C2)C3 [Compound 117, (1^1S,1^3R,Z)-2^1H-5,11-dioxa-3,9-diaza-4(3,5)-pyridina-2(3,5)-pyrazola-8(1,3)-bicyclo[1.1.1]pentana-1(1,3)-cyclopentanacycloundecaphan-10-one]
CDK1-CYCLIN B; Table 11
  IC50: ≤ 10 nM
CDK1-CYCLIN B; Table 12
  CDK2 Fold selectivity, CDK1: E (E, <20)
[1]
  IC50: ≤ 2 nM
[2]
  IC50: ≤ 2 nM
CDK6-CYCLIN D3; Table 11
  IC50: 10 to 50 nM
CDK6-CYCLIN D3; Table 12
  CDK2 Fold selectivity, CDK6: E (E, <20)
CCNE1-normal SKOV3 cells
  IC50: 50 to 250 nM
CDK2-CYCLIN E1; Table 11
  IC50: ≤ 10 nM
CDK9-CYCLIN T1; Table 11
  IC50: 10 to 50 nM
CDK9-CYCLIN T1; Table 12
  CDK2 Fold selectivity, CDK9: D (D, >20 and ≤50)
CDK4-CYCLIN D1; Table 11
  IC50: 10 to 50 nM
CDK4-CYCLIN D1; Table 12
  CDK2 Fold selectivity, CDK4: E (E, <20)

## C[C@H]1CCCOc2cncc(c2)Nc2cc(n[nH]2)[C@H]2CC[C@H](C2)OC(=O)N1 [Compound 119, (1^1S,1^3R,9S,Z)-9-methyl-2^1H-5,12-dioxa-3,10-diaza-4(3,5)-pyridina-2(3,5)-pyrazola-1(1,3)-cyclopentanacyclododecaphan-11-one]
CDK1-CYCLIN B; Table 13
  IC50: 10 to 50 nM
CDK1-CYCLIN B; Table 14
  CDK2 Fold selectivity, CDK1: D (D, >20 and ≤50)
[1]
  IC50: 10 to 50 nM
[2]
  IC50: 2 to 10 nM
CDK6-CYCLIN D3; Table 13
  IC50: 10 to 50 nM
CDK6-CYCLIN D3; Table 14
  CDK2 Fold selectivity, CDK6: E (E, <20)
CCNE1-normal SKOV3 cells
  IC50: > 1250 nM
CDK2-CYCLIN E1; Table 13
  IC50: ≤ 10 nM
CDK9-CYCLIN T1; Table 13
  IC50: 100 to 500 nM
CDK9-CYCLIN T1; Table 14
  CDK2 Fold selectivity, CDK9: C (C, >50 and ≤100)
CDK4-CYCLIN D1; Table 13
  IC50: 100 to 500 nM
CDK4-CYCLIN D1; Table 14
  CDK2 Fold selectivity, CDK4: C (C, >50 and ≤100)

## C[C@@H]1CCCOc2cncc(c2)Nc2cc(n[nH]2)[C@H]2CC[C@H](C2)OC(=O)N1 [Compound 120, (1^1S,1^3R,9R,Z)-9-methyl-2^1H-5,12-dioxa-3,10-diaza-4(3,5)-pyridina-2(3,5)-pyrazola-1(1,3)-cyclopentanacyclododecaphan-11-one]
CDK1-CYCLIN B; Table 13
  IC50: 10 to 50 nM
CDK1-CYCLIN B; Table 14
  CDK2 Fold selectivity, CDK1: E (E, <20)
[1]
  IC50: 10 to 50 nM
[2]
  IC50: 2 to 10 nM
CDK6-CYCLIN D3; Table 13
  IC50: 10 to 50 nM
CDK6-CYCLIN D3; Table 14
  CDK2 Fold selectivity, CDK6: E (E, <20)
CCNE1-normal SKOV3 cells
  IC50: > 1250 nM
CDK2-CYCLIN E1; Table 13
  IC50: ≤ 10 nM
CDK9-CYCLIN T1; Table 13
  IC50: 50 to 100 nM
CDK9-CYCLIN T1; Table 14
  CDK2 Fold selectivity, CDK9: C (C, >50 and ≤100)
CDK4-CYCLIN D1; Table 13
  IC50: 50 to 100 nM
CDK4-CYCLIN D1; Table 14
  CDK2 Fold selectivity, CDK4: C (C, >50 and ≤100)
